The NIST ThermoML archive (doi:10.1016/j.tca.2018.07.026)
Where “and” joins values, the source holds several entries; their conditions need not be identical. Equal values may be shown once.

Tests used:
[1] = molar heat capacity at constant pressure; details: 101.33 kPa, Crystal, DSC
[2] = Molar enthalpy of transition or fusion; details: Crystal; DSC
[3] = for vapor or sublimation pressure: Liquid, Transpiration method

N#Cc1cccc2ccccc12 [1-cyanonaphthalene]
Details	molar heat capacity at constant pressure	vapor or sublimation pressure [kPa]
[1], 268.9 K	144.7 J/K/mol and 156.8 J/K/mol	–
[1], 269.3 K	148.8 J/K/mol and 159.1 J/K/mol	–
[1], 269.7 K	152.4 J/K/mol and 161.1 J/K/mol	–
[1], 270.1 K	155.6 J/K/mol and 162.6 J/K/mol	–
[1], 270.5 K	158.2 J/K/mol and 164.1 J/K/mol	–
[1], 270.9 K	160.6 J/K/mol and 165.4 J/K/mol	–
[1], 271.3 K	162.5 J/K/mol and 166.5 J/K/mol	–
[1], 271.7 K	164.3 J/K/mol and 167.5 J/K/mol	–
[1], 272.1 K	168.4 J/K/mol and 165.9 J/K/mol	–
[1], 272.5 K	169.2 J/K/mol and 167.2 J/K/mol	–
[1], 272.9 K	168.6 J/K/mol and 170 J/K/mol	–
[1], 273.3 K	169.6 J/K/mol and 170.8 J/K/mol	–
[1], 273.6 K	170.5 J/K/mol and 171.4 J/K/mol	–
[1], 274 K	171.5 J/K/mol and 172.1 J/K/mol	–
[1], 274.4 K	172.1 J/K/mol and 172.7 J/K/mol	–
[1], 274.8 K	172.9 J/K/mol and 173.4 J/K/mol	–
[1], 275.2 K	173.5 J/K/mol and 173.9 J/K/mol	–
[1], 275.5 K	174.2 J/K/mol and 174.4 J/K/mol	–
[1], 275.9 K	174.6 J/K/mol and 174.9 J/K/mol	–
[1], 276.3 K	175.1 J/K/mol and 175.4 J/K/mol	–
[1], 276.7 K	175.5 J/K/mol and 175.6 J/K/mol	–
[1], 277 K	175.9 J/K/mol	–
[1], 277.1 K	175.7 J/K/mol	–
[1], 277.4 K	176 J/K/mol and 176.3 J/K/mol	–
[1], 277.8 K	176.2 J/K/mol and 176.6 J/K/mol	–
[1], 278.2 K	177 J/K/mol and 176.6 J/K/mol	–
[1], 278.5 K	177.5 J/K/mol and 177.1 J/K/mol	–
[1], 278.9 K	177.9 J/K/mol and 177.6 J/K/mol	–
[1], 279.3 K	178.4 J/K/mol and 178.1 J/K/mol	–
[1], 279.6 K	179 J/K/mol and 178.7 J/K/mol	–
[1], 280 K	179.6 J/K/mol and 179.5 J/K/mol	–
[1], 280.4 K	180.4 J/K/mol and 180.3 J/K/mol	–
[1], 280.7 K	181.1 J/K/mol	–
[1], 280.8 K	181.2 J/K/mol	–
[1], 281.1 K	181.9 J/K/mol and 182 J/K/mol	–
[1], 281.5 K	182.8 J/K/mol and 182.9 J/K/mol	–
[1], 281.8 K	183.7 J/K/mol	–
[1], 281.9 K	183.8 J/K/mol	–
[1], 282.2 K	184.7 J/K/mol and 184.8 J/K/mol	–
[1], 282.6 K	185.7 J/K/mol and 185.8 J/K/mol	–
[1], 282.9 K	186.7 J/K/mol and 186.6 J/K/mol	–
[1], 283.3 K	187.9 J/K/mol and 187.6 J/K/mol	–
[1], 283.7 K	188.9 J/K/mol and 188.4 J/K/mol	–
[1], 284 K	190 J/K/mol and 189 J/K/mol	–
[1], 284.4 K	190.9 J/K/mol and 189.8 J/K/mol	–
[1], 284.8 K	191.7 J/K/mol and 190.3 J/K/mol	–
[1], 285.1 K	192.3 J/K/mol and 190.7 J/K/mol	–
[1], 285.5 K	192.8 J/K/mol and 191 J/K/mol	–
[1], 285.9 K	193.1 J/K/mol and 191.4 J/K/mol	–
[1], 286.2 K	193.2 J/K/mol and 191.6 J/K/mol	–
[1], 286.6 K	193.3 J/K/mol and 191.7 J/K/mol	–
[1], 286.9 K	193.2 J/K/mol and 192 J/K/mol	–
[1], 287.3 K	193.3 J/K/mol and 192.4 J/K/mol	–
[1], 287.7 K	193.2 J/K/mol and 192.6 J/K/mol	–
[1], 288 K	193 J/K/mol	–
[1], 288.4 K	192.8 J/K/mol and 193.1 J/K/mol	–
[1], 288.8 K	192.4 J/K/mol and 193.1 J/K/mol	–
[1], 289.1 K	192.1 J/K/mol and 193.1 J/K/mol	–
[1], 289.5 K	191.7 J/K/mol and 193.1 J/K/mol	–
[1], 289.8 K	191.4 J/K/mol and 193.1 J/K/mol	–
[1], 290.2 K	191.3 J/K/mol and 193 J/K/mol	–
[1], 290.6 K	191.3 J/K/mol and 192.9 J/K/mol	–
[1], 290.9 K	191.6 J/K/mol and 192.9 J/K/mol	–
[1], 291.3 K	191.9 J/K/mol and 192.9 J/K/mol	–
[1], 291.7 K	192.2 J/K/mol and 193.1 J/K/mol	–
[1], 292 K	192.7 J/K/mol and 193.5 J/K/mol	–
[1], 292.4 K	193.3 J/K/mol and 193.6 J/K/mol	–
[1], 292.8 K	193.8 J/K/mol and 194.2 J/K/mol	–
[1], 293.1 K	194.5 J/K/mol and 194.6 J/K/mol	–
[1], 293.5 K	195.3 J/K/mol and 195.4 J/K/mol	–
[1], 293.8 K	196.1 J/K/mol	–
[1], 294.2 K	196.8 J/K/mol and 196.7 J/K/mol	–
[1], 294.6 K	197.8 J/K/mol and 197.4 J/K/mol	–
[1], 294.9 K	198.7 J/K/mol and 198.1 J/K/mol	–
[1], 295.3 K	199.6 J/K/mol and 198.9 J/K/mol	–
[1], 295.7 K	200.6 J/K/mol and 199.8 J/K/mol	–
[1], 296 K	201.6 J/K/mol and 200.6 J/K/mol	–
[1], 296.4 K	202.5 J/K/mol and 201.7 J/K/mol	–
[1], 296.8 K	203.6 J/K/mol and 202.9 J/K/mol	–
[3], 317.4 K	–	0.00232
[3], 321.3 K	–	0.00324
[3], 323.2 K	–	0.00381
[3], 326.3 K	–	0.00461
[3], 328.2 K	–	0.00556
[3], 331.2 K	–	0.00702
[3], 333.3 K	–	0.00785
[3], 335.2 K	–	0.00943
[3], 338.2 K	–	0.0116
[3], 340.2 K	–	0.01358
[3], 343.2 K	–	0.01719
[3], 345.1 K	–	0.01921
[3], 348.1 K	–	0.02329
[3], 351.1 K	–	0.02893
[3], 353.2 K	–	0.03229

Details	Molar enthalpy of transition or fusion [kcal/mol]
[2]	4.16

Details	Normal melting temperature [°C]
[3], Crystal, DTA	34
